Measured values published in the OPERA property sets (Mansouri et al. 2018).

Settings: for log10 BCF / log10 biotransformation half-life (days): fish

Structure (SMILES) | melting point | boiling point | also measured
CCC(C(=O)O)c1ccc(N2Cc3ccccc3C2=O)cc1 (stereo not given) | 183 °C |  | 
CC1=C(CC(=O)O)c2cc(F)ccc2/C1=C\c1ccc(S(C)=O)cc1 (stereo not given) | 183 °C |  | 
CCOP(=S)(S)OCC | -10 °C |  | ready biodegradability: not readily biodegradable; log10 BCF: 0.7
Cc1ncc([N+](=O)[O-])n1C | 138 °C |  | 
FC(F)(F)C1(F)OC1(F)F (stereo not given) |  | -27.4 °C | 
c1cc2c3c(c1)CCC3CCC2 (stereo not given) | 12.8 °C | 249 °C | 
CCCCCCNC(=O)COC(=O)c1ccccc1 | 130 °C |  | 
FC(F)(F)c1ccccc1Cl | -6 °C | 152 °C | log10 vapour pressure (mmHg): 0.706
CCC1(C)OC(=O)NC1=O (stereo not given) | 46 °C |  | 
Oc1ccc(Cl)c2cccnc12 | 130 °C |  | 
ClC(Cl)C(Cl)(Cl)Cl | -29 °C | 160 °C | log10 vapour pressure (mmHg): 0.544
FC(F)(F)C(F)(Cl)Cl | -56.6 °C | 4 °C | log10 vapour pressure (mmHg): 3.21
NC[C@H](O)[C@@H](O)[C@@H](O)[C@H](O)CO | 127 °C |  | 
CC(C)(C)c1ccc(Cl)cc1 |  | 213 °C | 
CCCCOC(=O)CCCC | -92.8 °C | 186 °C | 
COc1cc(Cl)c(Cl)c(Cl)c1O |  |  | log10 Koc (L/kg): 2.8; log10 vapour pressure (mmHg): -2.73; log10 BCF: 1.97
CCN(CC)c1ccc(N)cc1 |  | 261 °C | 
C=Cc1ccc(N)cc1 | 23.5 °C |  | 
C[Si](C)(C)Oc1ccccc1 | -55 °C | 119 °C | 
CCOc1ccc(NC(C)=O)cc1 | 138 °C | 244 °C | log10 Koa: 9.59; log10 vapour pressure (mmHg): -6.16; ready biodegradability: not readily biodegradable; log10 BCF: 1.48; log10 biotransformation half-life (days): -0.55
COc1cc(OC)cc(C(=O)O)c1 | 186 °C |  | log10 vapour pressure (mmHg): -6.86
Nc1ncn([C@@H]2O[C@H](CO)[C@@H](O)[C@H]2O)c(=O)n1 | 229 °C |  | 
ClC1=C(Cl)C2(Cl)C3CCC4C(CCC3C1(Cl)C2(Cl)Cl)C1(Cl)C(Cl)=C(Cl)C4(Cl)C1(Cl)Cl (stereo not given) |  |  | ready biodegradability: not readily biodegradable
CNC(=O)OCc1cccc(COC(=O)NC)n1 | 136 °C |  | 

Structure (SMILES) | melting point | boiling point | also measured
c1ccc2sncc2c1 | 38 °C | 220 °C | 
OCC(F)(F)C(F)(F)C(F)(F)C(F)F |  | 140 °C | 
COC(=O)CS |  | 148 °C | log10 vapour pressure (mmHg): 0.477
O=C(c1ccc(Cl)cc1)c1ccc(Cl)cc1 | 148 °C | 353 °C | 
NC(=O)C(F)(F)F | 72.5 °C | 162 °C | 
O=[N+]([O-])c1ccccc1-c1ccccc1 | 37.2 °C | 320 °C | 
ClCCC[Si](Cl)(Cl)Cl |  | 182 °C | 
Clc1cc(Cl)c2cc(Cl)c(Cl)c(Cl)c2c1 |  |  | log10 Koa: 8.82; log10 vapour pressure (mmHg): -5.68
CCOP(=S)(OCC)SCS(=O)(=O)C(C)(C)C |  |  | log10 Koc (L/kg): 2.18
Cc1cccc(C)c1NC(=O)C(C)N (stereo not given) | 256 °C |  | 
Cc1cccc(C(C)c2ccccc2)c1C (stereo not given) |  |  | ready biodegradability: not readily biodegradable
Cc1cc(N)ncn1 | 197 °C |  | 
OCC=Cc1ccccc1 | 33 °C |  | log10 vapour pressure (mmHg): -1.62; ready biodegradability: readily biodegradable
Cc1c2ccccc2cc2ccc3ccccc3c12 | 138 °C |  | 
CCCC(C)CO (stereo not given) |  | 149 °C | log10 vapour pressure (mmHg): 0.283
C/C(=C\c1ccccc1)C(=O)O | 80 °C |  | log10 vapour pressure (mmHg): -3.04
C#CCOC(=O)[C@@H](C)Oc1ccc(Oc2ncc(Cl)cc2F)cc1 | 59.5 °C |  | log10 vapour pressure (mmHg): -7.62
CCC=CC(C)(C)C |  | 103 °C | 
O=[N+]([O-])C(CO)(CO)CO | 214 °C |  | ready biodegradability: readily biodegradable
C=CCNC(N)=O | 85 °C |  | 
Oc1ccc(Cc2ccccc2)cc1 | 84 °C | 322 °C | ready biodegradability: not readily biodegradable; log10 BCF: 1.33; log10 biotransformation half-life (days): -0.86
COc1ccc(CCl)cc1 | 24.5 °C | 262 °C | 
O=[N+]([O-])OCC(CO[N+](=O)[O-])O[N+](=O)[O-] | 13.5 °C | 250 °C | log10 vapour pressure (mmHg): -3.4
COc1cc(C(C)=O)ccc1O | 115 °C | 297 °C | 

Structure (SMILES) | melting point | boiling point | also measured
CCCCCCOC=O | -62.6 °C | 156 °C | 
Clc1ccc2ccc(Cl)cc2c1 |  |  | log10 Koa: 6.7
CC#CCCCCCC |  | 162 °C | 
Nc1ccc(-c2ccc(N)c(N)c2)cc1N | 176 °C |  | 
O=Cc1ccoc1 |  | 145 °C | 
O=C(Cl)c1cccc(F)c1 | -30 °C | 189 °C | 
Cc1ccccc1NC(=S)Nc1ccccc1C | 158 °C |  | 
CCOC(=O)/C=C/C(=O)OCC |  |  | ready biodegradability: readily biodegradable
CC(C)(C)OOC(=O)c1ccccc1 | 8 °C |  | ready biodegradability: not readily biodegradable
CC(C)C(O)C(C)C |  | 139 °C | log10 vapour pressure (mmHg): 0.477
COC(=O)/C(C)=C/OP(=S)(OC)OC |  |  | log10 vapour pressure (mmHg): -2.92
O=C(O)c1cc([N+](=O)[O-])cc([N+](=O)[O-])c1 | 205 °C |  | log10 Koc (L/kg): 1.53; ready biodegradability: not readily biodegradable
CCCCCCCCCCCCCCCCCCC1CO1 (stereo not given) |  |  | ready biodegradability: readily biodegradable
CCN(C)C | -140 °C | 36.5 °C | 
C/C=C(/C)C(=O)O[C@H]1CCN2CC=C(COC(=O)[C@](O)([C@H](C)OC)C(C)(C)O)[C@H]12 | 95 °C |  | 
O=Cc1ccc(O)c(Cl)c1 | 139 °C |  | 
Clc1cc(Cl)c2c(c1)Oc1cc(Cl)c(Cl)cc1O2 | 194 °C |  | log10 vapour pressure (mmHg): -8.2
COS(=O)(=O)c1ccc(C)cc1 | 28.5 °C | 292 °C | 
O=[N+]([O-])c1c(F)c(F)c(F)c(F)c1F |  | 160 °C | 
FC(F)(Cl)C(Cl)Cl |  | 71.9 °C | 
O=C(O)CCCCCCC(=O)O | 144 °C | 346 °C | log10 vapour pressure (mmHg): -6.54
CC(C)(O)C#N | -19 °C | 171 °C | log10 vapour pressure (mmHg): -0.467; ready biodegradability: readily biodegradable
Clc1ccc2c(c1)Oc1cc(Cl)ccc1O2 | 151 °C |  | log10 vapour pressure (mmHg): -5.98
Cc1ccc2cccnc2c1 | 39 °C | 258 °C | log10 vapour pressure (mmHg): -2.05

Structure (SMILES) | melting point | boiling point | also measured
O=C(O)CCc1nc(-c2ccccc2)c(-c2ccccc2)o1 | 161 °C |  | 
CC(C)(C)Br | -16.2 °C | 73.3 °C | log10 vapour pressure (mmHg): 2.13
C=C[C@@]1(C)CC[C@H]2C(=CC[C@@H]3[C@]2(C)CCC[C@@]3(C)C(=O)O)C1 | 160 °C |  | log10 BCF: 1.63
COc1ccc(C(=O)CC(=O)c2ccc(C(C)(C)C)cc2)cc1 | 83.5 °C |  | 
CNC(=O)Nc1ccc(OC)c(Cl)c1 |  |  | log10 Koc (L/kg): 1.84
CC(=O)Nc1ccccc1Cl | 89 °C |  | log10 Koc (L/kg): 1.58
NCCNCCO | -38 °C | 239 °C | ready biodegradability: not readily biodegradable; log10 BCF: 0.46
CCOC(=O)C(SP(=S)(OC)OC)c1ccccc1 (stereo not given) | 17.5 °C |  | log10 Koc (L/kg): 3; log10 vapour pressure (mmHg): -5.58; ready biodegradability: not readily biodegradable; log10 BCF: 1.69; log10 biotransformation half-life (days): -0.75
Clc1ccc(-c2ccc(Cl)cc2)cc1 | 149 °C | 317 °C | log10 Henry constant (atm·m³/mol): -3.7; log10 Koa: 7.68; log10 vapour pressure (mmHg): -3.27
c1ccc2c(c1)nnc1ccccc12 | 158 °C |  | 
OCC(F)(F)F | -43.5 °C | 74 °C | log10 Henry constant (atm·m³/mol): -4.76; log10 vapour pressure (mmHg): 1.85
O=C=S | -139 °C | -50 °C | log10 vapour pressure (mmHg): 3.97
COc1cccc(C=O)c1O | 44.5 °C | 266 °C | 
C1CCN(SSN2CCCCC2)CC1 | 64.2 °C |  | 
Cc1cc(N)c(S(=O)(=O)O)cc1Cl |  |  | ready biodegradability: not readily biodegradable
Oc1ccc(OCc2ccccc2)cc1 | 122 °C |  | 
C#CCCCCC#C |  | 136 °C | 
CCSC(=O)N(CC(C)C)CC(C)C |  |  | log10 Koc (L/kg): 2.11; log10 vapour pressure (mmHg): -1.89
COC(=O)C[C@@H](C)C(=O)OC |  | 196 °C | 
CC(C)C(=O)C(C)C | -69 °C | 125 °C | log10 vapour pressure (mmHg): 1.13
C=C(C)c1ccccc1C |  | 175 °C | 
CCCCCCCCCCCCCCCCCCOP(OCCCCCCCCCCCCCCCCCC)OCCCCCCCCCCCCCCCCCC |  |  | ready biodegradability: readily biodegradable
CCOC(=O)c1c(Cl)c(Cl)c(Cl)c(Cl)c1C(=O)O | 94.5 °C |  | 
Clc1ccc(-c2cc(Cl)c(Cl)cc2Cl)cc1Cl |  |  | log10 Koa: 9.82; log10 vapour pressure (mmHg): -5.05; log10 biotransformation half-life (days): 2.19

Structure (SMILES) | melting point | boiling point | also measured
O=C(N[C@@H](Cc1ccccc1)C(=O)O)OCc1ccccc1 | 88.5 °C |  | 
CCC(C(N)=O)n1nc2ccccc2n1 (stereo not given) | 128 °C |  | 
C[n+]1cc2c3c(ccc2c2ccc4cc5c(cc4c21)OCO5)OCO3 | 266 °C |  | 
CC=C(Cl)Cl |  | 76.5 °C | log10 vapour pressure (mmHg): 1.96
CCCCCCCCSCCO | 0 °C |  | log10 vapour pressure (mmHg): -3.23
CCCCC(C)(C)C | -121 °C |  | log10 biodegradation half-life (days): 0.602; log10 vapour pressure (mmHg): 1.53
Nc1ccc(S(=O)(=O)Nc2cnccn2)cc1 | 251 °C |  | 
CC(C)(C)NCCNC(C)(C)C |  | 197 °C | log10 vapour pressure (mmHg): -0.575
O=CN1CCOCC1 | 21 °C | 239 °C | 
CCC(=NO)C(C)=NO | 172 °C |  | 
FC(F)(F)C(Cl)(Cl)C(F)(F)Cl | -4.3 °C | 72 °C | 
CCCCOC=O | -91.5 °C | 106 °C | log10 vapour pressure (mmHg): 1.46
c1ccc2c(c1)-c1ccc3ccc4cccc5cc-2c1c3c45 | 164 °C | 536 °C | log10 Henry constant (atm·m³/mol): -6.46; log10 Koc (L/kg): 6.2; log10 biodegradation half-life (days): 2.52
CCCCCC[C@H](C)I |  | 210 °C | log10 vapour pressure (mmHg): 0.136
CCOC(=O)[C@H](O)[C@@H](O)C(=O)OCC | 17 °C | 280 °C | 
Cc1cccc(Br)c1C |  | 214 °C | 
O=C(Nc1ncc([N+](=O)[O-])s1)c1cccs1 | 256 °C |  | 
Cc1ccc(C)o1 | -62.8 °C | 93.5 °C | 
CCC=CC(C)C |  |  | log10 vapour pressure (mmHg): 1.88
Clc1nnnn1-c1ccccc1 | 123 °C |  | 
CCCCCCCCCCCCCCCCCC(=O)OCCOC(=O)CCCCCCCCCCCCCCCCC | 79 °C |  | ready biodegradability: readily biodegradable
c1ccc2c(c1)CCCO2 | 215 °C |  | 
S=C(SC(=S)N1CCCCC1)N1CCCCC1 | 110 °C |  | 
